Where two headings read alike, the source gives them in different places.

In assay [1] the target is T1, human Nav1.7 channels stably expressed in HEK 293 cells (Homo sapiens, UniProt Q15858).
T1 construct: expressed in transfected cells; host or cells: HEK 293
The assay can be described thus: Qube automated patch-clamp assay, inhibition of sodium current. Type of assay: cell-based. The following applies: max concentration tested 33750 nM, read-out: NaV1.7 (nM). Here is the method:
(§1) Qube™ Experimental Procedure:
(§2) Compounds were tested on human Nav1.7 and Nav1.6 channels stably expressed in HEK 293 cells. […] Cells were sealed on a planar substrate using the multihole technology. Cells expressing human Nav1.7 channels were held at −75 mV or −80 mV. Cells expressing human Nav1.6 channels were held at −65 mV. A train of 6 consecutive test pulses to −10 mV, preceded by 8 s prepulses to −115 mV, was applied at a frequency of 0.1 Hz before and after compound addition. Cells in each Qchip well were incubated in compound for 5 minutes before measuring inhibition. Peak currents were measured in control conditions and after compound addition. The following recording solutions were used (mM). External Nav1.6: 150 NaCl, 2 CaCl2), 5 KCl, 1 Mg Cl2, 10 HEPES, 12 Dextrose; external Nav1.7: 40 NaCl, 120 NMDG, 1 KCl, 0.5 MgCl2, 5 HEPES, 2.7 CaCl2); internal: 120 CsF, 30 CsCl, 10 EGTA, 5 HEPES, 5 NaF, 2 MgCl2. Compounds were prepared as 10 mM stock solutions in DMSO. 10 point compound titrations were generated using the Echo acoustic liquid handling instrument and glass coated 384 well plates. The final DMSO concentration in the assay was 0.3%. For all electrophysiology experiments, offline analysis was used to determine percent inhibition as a function of drug concentration. IC50 values were determined by fitting to the Hill equation.
(§3) The various compounds in EXAMPLES 1 through 43 and TABLE 2 exemplified above were assayed for activity and selectivity using the foregoing Qube® technique. The results are reported in TABLE 3 in a format expressing the identification of the compound with reference EXAMPLE followed by the observed potency in nM for NaV1.7, NaV1.6 and NaV1.5. NA signifies not applicable and the max concentration tested is 33750 nM.
On the technique in general: Patch clamp records ionic current or voltage across a cell membrane.

Assay [2] addresses T2, human Nav1.6 channels stably expressed in HEK 293 cells (Homo sapiens, UniProt Q9UQD0).
T2 construct: expressed in transfected cells; host or cells: HEK 293
The description is as above. The following applies: holding potential −65 mV; max concentration tested 33750 nM. Format: cell-based. As for the experimental part: as §1, §2, §3

The mark [3] stands for this setting: holding potential −75 mV, −75 mV.
[4] abbreviates: holding potential −80 mV, −80 mV.

T1 sequence (Q15858 whole entry): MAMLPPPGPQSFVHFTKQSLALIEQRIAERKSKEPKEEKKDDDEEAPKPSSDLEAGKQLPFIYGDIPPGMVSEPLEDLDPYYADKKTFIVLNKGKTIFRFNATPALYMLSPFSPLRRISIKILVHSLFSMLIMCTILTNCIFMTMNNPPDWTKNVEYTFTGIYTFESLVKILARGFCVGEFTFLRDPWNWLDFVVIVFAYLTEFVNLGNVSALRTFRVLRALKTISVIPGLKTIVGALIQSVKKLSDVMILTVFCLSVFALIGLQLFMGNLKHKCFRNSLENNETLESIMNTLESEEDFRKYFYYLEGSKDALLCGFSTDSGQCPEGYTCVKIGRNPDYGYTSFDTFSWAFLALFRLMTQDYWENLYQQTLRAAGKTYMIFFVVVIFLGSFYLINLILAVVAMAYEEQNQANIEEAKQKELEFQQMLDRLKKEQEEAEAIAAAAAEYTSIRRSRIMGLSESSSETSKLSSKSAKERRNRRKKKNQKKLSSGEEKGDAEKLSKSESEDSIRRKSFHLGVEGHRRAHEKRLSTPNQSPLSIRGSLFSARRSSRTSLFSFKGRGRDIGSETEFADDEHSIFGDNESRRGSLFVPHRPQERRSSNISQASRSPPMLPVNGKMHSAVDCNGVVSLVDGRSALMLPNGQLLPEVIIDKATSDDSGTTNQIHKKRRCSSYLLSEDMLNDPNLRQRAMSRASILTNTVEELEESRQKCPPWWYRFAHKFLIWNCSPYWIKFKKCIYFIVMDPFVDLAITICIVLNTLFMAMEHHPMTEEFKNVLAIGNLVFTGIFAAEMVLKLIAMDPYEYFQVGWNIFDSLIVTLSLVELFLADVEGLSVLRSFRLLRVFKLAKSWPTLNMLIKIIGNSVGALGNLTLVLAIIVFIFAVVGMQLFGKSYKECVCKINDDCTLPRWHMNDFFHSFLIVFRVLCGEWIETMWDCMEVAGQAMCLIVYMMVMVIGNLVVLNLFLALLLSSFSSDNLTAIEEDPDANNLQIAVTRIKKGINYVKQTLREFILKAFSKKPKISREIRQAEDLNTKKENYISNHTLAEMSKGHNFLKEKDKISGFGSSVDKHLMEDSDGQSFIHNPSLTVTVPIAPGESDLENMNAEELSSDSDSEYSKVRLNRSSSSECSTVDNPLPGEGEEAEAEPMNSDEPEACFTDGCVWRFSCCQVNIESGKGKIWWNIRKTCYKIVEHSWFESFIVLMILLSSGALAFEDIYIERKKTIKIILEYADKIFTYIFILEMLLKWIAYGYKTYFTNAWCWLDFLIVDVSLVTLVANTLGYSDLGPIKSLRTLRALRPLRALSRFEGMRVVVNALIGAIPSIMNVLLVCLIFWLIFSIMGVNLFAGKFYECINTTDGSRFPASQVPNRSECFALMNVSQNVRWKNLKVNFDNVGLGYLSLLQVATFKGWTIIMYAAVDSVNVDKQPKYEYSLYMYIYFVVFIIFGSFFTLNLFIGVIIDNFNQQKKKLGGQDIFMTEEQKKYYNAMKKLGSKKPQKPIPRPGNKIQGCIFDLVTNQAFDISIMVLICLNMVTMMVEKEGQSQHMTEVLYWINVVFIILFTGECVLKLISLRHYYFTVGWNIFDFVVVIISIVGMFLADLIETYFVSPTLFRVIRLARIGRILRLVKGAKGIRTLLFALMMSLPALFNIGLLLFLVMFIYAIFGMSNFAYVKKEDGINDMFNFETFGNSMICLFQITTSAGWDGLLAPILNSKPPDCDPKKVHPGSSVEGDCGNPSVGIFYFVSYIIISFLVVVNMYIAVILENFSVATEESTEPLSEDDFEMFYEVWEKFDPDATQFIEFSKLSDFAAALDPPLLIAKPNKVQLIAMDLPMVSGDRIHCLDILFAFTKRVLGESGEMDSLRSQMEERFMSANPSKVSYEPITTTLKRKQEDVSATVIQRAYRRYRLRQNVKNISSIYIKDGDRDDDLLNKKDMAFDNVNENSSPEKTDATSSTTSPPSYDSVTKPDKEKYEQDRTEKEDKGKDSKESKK
T2 sequence (Q9UQD0 whole entry): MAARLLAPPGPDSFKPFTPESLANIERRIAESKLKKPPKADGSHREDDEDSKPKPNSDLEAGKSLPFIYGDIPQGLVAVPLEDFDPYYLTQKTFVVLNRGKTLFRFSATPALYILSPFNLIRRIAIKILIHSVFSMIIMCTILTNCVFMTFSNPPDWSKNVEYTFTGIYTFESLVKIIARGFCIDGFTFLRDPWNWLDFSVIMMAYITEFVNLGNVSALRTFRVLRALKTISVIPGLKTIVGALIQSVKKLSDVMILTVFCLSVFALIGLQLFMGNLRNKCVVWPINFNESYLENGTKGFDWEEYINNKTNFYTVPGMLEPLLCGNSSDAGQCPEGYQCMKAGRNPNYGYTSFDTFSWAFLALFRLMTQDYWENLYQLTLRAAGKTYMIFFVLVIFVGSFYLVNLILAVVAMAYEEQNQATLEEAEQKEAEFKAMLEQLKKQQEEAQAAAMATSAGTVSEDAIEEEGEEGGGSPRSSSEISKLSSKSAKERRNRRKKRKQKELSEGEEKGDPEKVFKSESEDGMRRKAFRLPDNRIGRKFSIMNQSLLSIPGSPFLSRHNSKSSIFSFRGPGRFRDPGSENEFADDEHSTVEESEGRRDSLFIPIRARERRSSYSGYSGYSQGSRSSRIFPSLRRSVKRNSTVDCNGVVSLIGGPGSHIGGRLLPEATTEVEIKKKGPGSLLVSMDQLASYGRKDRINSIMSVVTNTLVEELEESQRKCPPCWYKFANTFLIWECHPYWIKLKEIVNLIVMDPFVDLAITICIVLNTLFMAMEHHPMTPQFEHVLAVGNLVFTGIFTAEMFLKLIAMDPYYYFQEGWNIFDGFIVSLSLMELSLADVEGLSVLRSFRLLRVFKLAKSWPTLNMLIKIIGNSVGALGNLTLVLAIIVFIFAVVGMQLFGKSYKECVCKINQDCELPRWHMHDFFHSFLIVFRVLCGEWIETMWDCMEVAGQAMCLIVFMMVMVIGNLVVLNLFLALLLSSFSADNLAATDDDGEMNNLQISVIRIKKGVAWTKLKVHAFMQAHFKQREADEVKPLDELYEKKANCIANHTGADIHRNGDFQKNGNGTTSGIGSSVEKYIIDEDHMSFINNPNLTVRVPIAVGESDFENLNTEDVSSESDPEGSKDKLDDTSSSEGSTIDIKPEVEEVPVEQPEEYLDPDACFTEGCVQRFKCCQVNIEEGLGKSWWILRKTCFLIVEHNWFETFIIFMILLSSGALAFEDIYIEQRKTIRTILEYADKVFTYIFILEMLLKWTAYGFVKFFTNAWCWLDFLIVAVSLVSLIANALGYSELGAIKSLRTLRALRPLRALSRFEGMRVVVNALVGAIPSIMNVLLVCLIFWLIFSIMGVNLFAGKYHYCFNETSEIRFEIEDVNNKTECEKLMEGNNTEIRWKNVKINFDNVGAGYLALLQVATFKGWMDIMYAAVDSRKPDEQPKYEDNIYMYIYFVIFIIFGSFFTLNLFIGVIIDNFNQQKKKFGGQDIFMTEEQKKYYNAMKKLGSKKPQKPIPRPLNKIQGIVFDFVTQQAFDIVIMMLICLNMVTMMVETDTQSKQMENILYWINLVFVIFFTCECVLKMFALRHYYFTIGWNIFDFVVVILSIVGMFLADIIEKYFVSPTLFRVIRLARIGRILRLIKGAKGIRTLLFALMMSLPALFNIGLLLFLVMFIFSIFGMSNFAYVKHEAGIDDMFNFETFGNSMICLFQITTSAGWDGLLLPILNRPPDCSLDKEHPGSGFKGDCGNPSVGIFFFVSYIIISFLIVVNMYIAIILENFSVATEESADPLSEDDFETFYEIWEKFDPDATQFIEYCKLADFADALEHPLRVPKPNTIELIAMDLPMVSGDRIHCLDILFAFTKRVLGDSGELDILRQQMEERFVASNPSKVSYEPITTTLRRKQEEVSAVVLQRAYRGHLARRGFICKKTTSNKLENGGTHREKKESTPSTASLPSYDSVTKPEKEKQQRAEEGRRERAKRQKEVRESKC

`C[C@@H](N)[C@H](CNc1cc(F)c(S(=O)(=O)Nc2ncns2)cc1Cl)CC(N)C(F)(F)F` (single isomer, unassigned) [Example 1]: the IC50 worked out at 203 nM in assay [1] (setting [3]) and 20400 nM in assay [2].

For the compound `C[C@@H](N)C(COc1ncc(S(=O)(=O)Nc2ncc(F)s2)cc1Cl)CC1(CCN)CCC1` (single isomer, unassigned) [Example 6], the IC50 in assay [1] (setting [3]) was 93 nM; in assay [2], above 33800 nM.

For the compound `C[C@@H](N)C(CNc1ncc(S(=O)(=O)Nc2ncc(F)s2)cc1Cl)CC1(CCN)CCC1` (single isomer, unassigned) [Example 8], the IC50 in assay [1] (setting [3]) is 18 nM; in assay [2], above 33800 nM.

As to `C[C@@H](N)C(CNc1cc(F)c(S(=O)(=O)Nc2ncns2)cc1F)CC1CC(C)(C)CN1` (single isomer, unassigned) [Example 14], the IC50 in assay [1] (setting [4]) is above 33800 nM.

In the case of `C[C@@H](N)[C@H](CNc1ccc(S(=O)(=O)Nc2ncns2)c(F)c1)CC(CCN)C1CC1` (single isomer, unassigned) [Example 20], the IC50 in assay [1] (setting [4]) was determined as 1390 nM.

With `CC[C@@H](N)C(CNc1cc(F)c(S(=O)(=O)Nc2ncns2)c(F)c1F)CC1(CCN)CCC1` (single isomer, unassigned) [Example 21], the IC50 in assay [1] (setting [4]) worked out at 916 nM.

Turning to `C[C@@H](N)C(CNc1cc(F)c(S(=O)(=O)Nc2ncns2)cc1F)CC1CCCC12CNC2` (single isomer, unassigned) [Example 24], the IC50 in assay [1] (setting [4]) is above 33800 nM.

As to `C[C@@H](N)[C@H](CNc1cc(F)c(S(=O)(=O)Nc2ncns2)cc1Cl)C[C@@H]1C[C@@H]1CN` (single isomer, unassigned) [Example 33], the IC50 in assay [1] (setting [3]) is 156 nM; in assay [2] it was above 33800 nM.

As to `CC(C)NCC(CNc1cc(F)c(S(=O)(=O)Nc2ncns2)cc1Cl)[C@@H](C)N` (single isomer, unassigned) [Example 37], the IC50 in assay [1] (setting [3]) was 6760 nM; in assay [2], above 33800 nM.

Regarding `C[C@@H](N)[C@@H](CC(C)(C)CCN)C1CCc2cc(S(=O)(=O)Nc3ncns3)c(F)cc2O1` (single isomer, unassigned) [Example 41], the IC50 in assay [1] (setting [4]) was 13700 nM.

On to `C[C@@H](N)C(CNc1cc(F)c(S(=O)(=O)Nc2ncns2)cc1F)CC1CCCC1CN` (single isomer, unassigned) [Example 47], for which the results for the IC50 in assay [1] (setting [4]) and in assay [2] were 3610 nM and above 33800 nM, respectively.

As to `C[C@@H](N)C(CNc1cc(F)c(S(=O)(=O)Nc2ncns2)cc1F)CC1(C)CCC1CN` (single isomer, unassigned) [Example 52], the IC50 in assay [1] (setting [4]) was 12300 nM; in assay [2] it was above 33800 nM.

Take `C[C@@H](N)C(CNc1cc(F)c(S(=O)(=O)Nc2ncns2)cc1F)CC1(C)CCC1CN` (single isomer, unassigned) [Example 55]: the IC50 was 1060 nM in assay [1] (setting [4]) and above 33800 nM in assay [2].

Consider `C[C@@H](N)C(CNc1cc(F)c(S(=O)(=O)Nc2ncns2)cc1Br)CC1(CCN)CC(F)(F)C1` (single isomer, unassigned) [Example 56], for which, in assay [1] (setting [4]), the IC50 is above 33800 nM.

Take `C[C@@H](N)C(CNc1cc(F)c(S(=O)(=O)Nc2ncns2)cc1F)CC1CCCCC1CCN` (single isomer, unassigned) [Example 64]: the figures for the IC50 in assay [1] (setting [4]) and in assay [2] were 14600 nM and above 33800 nM, respectively.

With `C[C@@H](N)C(CNc1cc(F)c(S(=O)(=O)Nc2ncns2)cc1F)CC1CCCCC1CCN` (single isomer, unassigned) [Example 66], the results for the IC50 in assay [1] (setting [4]) and in assay [2] were 12600 nM and above 33800 nM, respectively.

Turning to `C[C@@H](N)C(CNc1cc(F)c(S(=O)(=O)Nc2ncns2)cc1F)CC1CCCCC1CCN` (single isomer, unassigned) [Example 67], the IC50 in assay [1] (setting [4]) and in assay [2] was above 33800 nM in each case.

Turning to `C[C@@H](N)C(CNc1cc(F)c(S(=O)(=O)Nc2ncns2)cc1F)CC1CNCC1(C)C` (single isomer, unassigned) [Example 76], the IC50 in assay [1] (setting [4]) was 328 nM; in assay [2], above 33800 nM.

As to `COC(CN)C[C@@H](CNc1cc(F)c(S(=O)(=O)Nc2ncns2)cc1Br)[C@@H](C)N` (single isomer, unassigned) [Example 82], the IC50 in assay [1] (setting [4]) was 1760 nM.

Values taken from patent US12246008B2, “4-amino or 4-alkoxy-substituted aryl sulfonamide compounds with selective activity in voltage-gated sodium channels” (Merck Sharp & Dohme LLC, priority 2018, dated 2025).
